Measured values: ChEMBL document CHEMBL1155712, “Cytotoxic polyacetylenes from the twigs of Ochanostachys amentacea” (2001)
≈ marks a conversion by molar mass, not a printed value.

Tests used:
Assay type in all cases: functional
Settings in all cases: read-out: ED50 (the source's name)
KB [1] = assay: Cytotoxicity against multidrug-resistant human KB cells in presence of vinblastine
KB [2] = assay: Cytotoxicity against multidrug-resistant human KB cells in absence of vinblastine
LNCaP = assay: Cytotoxicity against human LNCAP cells
SW626 = assay: Cytotoxicity against human SW626 cells
SK-N-SH = assay: Cytotoxicity against human SK-N-SH cells
M109 = assay: Cytotoxicity against mouse M109 cells
[3] = Cytotoxicity against human BC1 cells
Lu1 = assay: Cytotoxicity against human Lu1 cells
Col2 = assay: Cytotoxicity against human Col2 cells
KB [4] = assay: Cytotoxicity against human KB cells
P388 = assay: Cytotoxicity against mouse P388 cells

SMILES | EC50 (KB [1]) [µg/mL] | EC50 (KB [2]) [µg/mL] | EC50 (LNCaP) [µg/mL] | EC50 (SW626) [µg/mL] | EC50 (SK-N-SH) [µg/mL] | EC50 (M109) [µg/mL] | EC50 [3] [µg/mL] | EC50 (Lu1) [µg/mL] | EC50 (Col2) [µg/mL] | EC50 (KB [4]) [µg/mL] | EC50 (P388) [µg/mL]
O=C(O)CCCCCCCC#CC#CC#CC#CC(O)CO (single isomer, unassigned) | 11.9 | 13.4 (≈ 44.6 µM) | 9.2 (≈ 30.6 µM) | 19.4 (≈ 64.6 µM) | 6.7 (≈ 22.3 µM) | 10.1 (≈ 33.6 µM) | > 20 | 14.6 (≈ 48.6 µM) | > 20 | 2.6 (≈ 8.66 µM) | –
C[C@H](O)/C=C/C#CC#CC#CCCCCCCCC(=O)O | > 20 | > 20 | 0.3 (≈ 1.05 µM) | 0.36 (≈ 1.26 µM) | 3.7 (≈ 12.9 µM) | 5.4 (≈ 18.9 µM) | > 20 | > 20 | 9.9 (≈ 34.6 µM) | 1.1 (≈ 3.84 µM) | –
C[C@H](O)C#CC#CC#CC#CCCCCCCCC(=O)O [MINQUARTYNOIC ACID] | 2.8 | 4.3 (≈ 15.1 µM) | 1.6 (≈ 5.63 µM) | 4.1 (≈ 14.4 µM) | 1.4 (≈ 4.92 µM) | 3.7 (≈ 13 µM) | 3.5 (≈ 12.3 µM) | 4.1 (≈ 14.4 µM) | 5.5 (≈ 19.3 µM) | 3.7 (≈ 13 µM) | 0.18 (≈ 0.633 µM)
